In patent publication US20260022142A1, “MACROCYCLIC IMMUNOMODULATORS” (Bristol-Myers Squibb Company, priority 2022, published 2026) one finds IC50 data, which are given here for twelve molecules.

Numbered stars: 1 amine (or outer) side, 2 acyl side, 3 side chain; on linkers, the order of the positions; unused ones are H or OH. Bridge positions count the residues as written; N and C are the ends. Square brackets hold non-standard residues; d marks the D form. Peptide text beside a SMILES is read from it. * marks the point of attachment. ξ: configuration not given here. Bip = N[C@@H](Cc1ccc(-c2ccccc2)cc1)C(=O)O; Tyr(3-Me) = Cc1cc(C[C@H](N)C(=O)O)ccc1O; Phe(3-Me) = Cc1cccc(C[C@H](N)C(=O)O)c1; Phe(4-F) = N[C@@H](Cc1ccc(F)cc1)C(=O)O; γGlu = O=C(O)[C@H](CCC(=O)[*:2])N[*:1]; βAsp = O=C(O)[C@H](CC(=O)[*:2])N[*:1]; Val(3-OH) = CC(C)(O)[C@H](N)C(=O)O; 4Pal = N[C@@H](Cc1ccncc1)C(=O)O; Cha = N[C@@H](CC1CCCCC1)C(=O)O; Cit = NC(=O)NCCC[C@H](N)C(=O)O; dCha = N[C@H](CC1CCCCC1)C(=O)O; Thr(3ξ) = CC(O)[C@H](N)C(=O)O; NMeNle = CCCC[C@H](NC)C(=O)O; Carboxymethyl = O=C(O)C*; Orn = NCCC[C@H](N)C(=O)O; Pra = C#CC[C@H](N)C(=O)O; dDap = NC[C@@H](N)C(=O)O; Aun = NCCCCCCCCCCC(=O)O; Dab = NCC[C@H](N)C(=O)O; Dap = NC[C@H](N)C(=O)O; AEEA = NCCOCCOCC(=O)O

In this test the target is T1, PD-1/PD-L1 interaction (PE-labeled human PD-L1-Ig binding to Jurkat cell line over-expressing human PD-1) (Homo sapiens, UniProt Q15116).
T1 construct: expressed in transfected cells; host or cells: Jurkat
T1 sequence (Q15116 25-288): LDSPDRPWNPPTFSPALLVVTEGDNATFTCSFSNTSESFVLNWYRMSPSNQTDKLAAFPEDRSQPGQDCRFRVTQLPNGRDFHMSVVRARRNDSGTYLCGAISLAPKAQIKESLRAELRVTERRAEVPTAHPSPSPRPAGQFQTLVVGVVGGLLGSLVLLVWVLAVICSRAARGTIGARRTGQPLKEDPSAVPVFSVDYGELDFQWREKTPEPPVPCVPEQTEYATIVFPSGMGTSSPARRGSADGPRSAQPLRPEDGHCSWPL
Kind of test: Jurkat-PD-1 Cell Binding High-Content Screening Assay (CBA). As to conditions: Jurkat cell line over-expressing human PD-1; PE-labeled PD-L1-Ig 20 nM final; read-out: Jurkat hPD1-PDL1 IC50. It is filed as cell-based. The essentials:
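Binding of fluorescent PD-L1-Ig (phycoerythrin on Ig tag, 20 nM final, 1 h) measured by high-content imaging of fixed, Hoechst-counterstained Jurkat-hPD-1 cells. Compound added 2 h at 37° C beforehand, in DMEM with 10% fetal calf serum.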
As for `CCCC[C@H]1C(=O)N[C@@H](Cc2ccc(OCC(=O)O)cc2)C(=O)N[C@@H](CC(=O)O)C(=O)N[C@@H](Cc2cccc(C)c2)C(=O)N[C@@H](Cc2ccc(OCC(=O)O)cc2)C(=O)N[C@@H](Cc2ccc(-c3ccccc3)cc2)C(=O)N[C@@H](Cc2ccc(OCC(=O)O)cc2)C(=O)N[C@@H](CCCN)C(=O)N[C@H](CC(C)C)C(=O)N[C@@H](CCN)C(=O)N[C@@H](CC2CCCCC2)C(=O)N[C@@H](C(C)C)C(=O)N[C@@H](CO)C(=O)N[C@H](C(=O)N[C@@H](CCN)C(=O)NCCCCCCCCCCC(=O)O)CSCC(=O)N1C` [Compound 3598] ({CH2CO}-[NMeNle]Y(Carboxymethyl)D[Phe(3-Me)]Y(Carboxymethyl)[Bip]Y(Carboxymethyl)[Orn][dL][Dab][Cha]VSC[Dab][Aun]-OH; thioether N-14), the half-maximal inhibitory concentration (IC50) is 13.8 nM.

`Cc1cccc(C[C@@H]2NC(=O)[C@H](CC(=O)O)NC(=O)[C@H](Cc3ccc(OCC(=O)O)cc3)NC(=O)[C@H](CN)NC(=O)CSC[C@@H](C(=O)N[C@@H](CCN)C(=O)NCCCCCCCCCCC(=O)O)NC(=O)[C@H](Cc3ccncc3)NC(=O)[C@H](C(C)C)NC(=O)[C@H](CC3CCCCC3)NC(=O)[C@H](CCN)NC(=O)[C@@H](CC(C)C)NC(=O)[C@H](CCCN)NC(=O)[C@H](Cc3ccc(O)cc3)NC(=O)[C@H](Cc3ccc(-c4ccccc4)cc3)NC(=O)[C@H](C(C)C)NC2=O)c1` [Compound 2768] ({CH2CO}-[Dap]Y(Carboxymethyl)D[Phe(3-Me)]V[Bip]Y[Orn][dL][Dab][Cha]V[4Pal]C[Dab][Aun]-OH; thioether N-14): the IC50 was 55.2 nM.

As to `C#CC[C@H](NC(=O)COCCOCCNC(=O)[C@H](CCCN)NC(=O)[C@@H]1CSCC(=O)N[C@@H](Cc2ccncc2)C(=O)N[C@@H](Cc2ccc(OCC(=O)O)cc2)C(=O)N[C@@H](CC(=O)O)C(=O)N[C@@H](Cc2c[nH]c3ccccc23)C(=O)N[C@@H](C(C)C)C(=O)N[C@@H](Cc2ccc(-c3ccccc3)cc2)C(=O)N[C@@H]([C@@H](C)CC)C(=O)N[C@@H](CCCN)C(=O)N[C@H](CC(C)C)C(=O)N[C@@H](CCN)C(=O)N[C@@H](CC(C)C)C(=O)N[C@@H](C(C)C)C(=O)N[C@@H]([C@@H](C)O)C(=O)N1)C(=O)N[C@@H](CN)C(=O)NCCCCCCCCCCC(=O)O` [Compound 1199] ({CH2CO}-[4Pal]Y(Carboxymethyl)DWV[Bip]I[Orn][dL][Dab]LVTC[Orn][AEEA][Pra][Dap][Aun]-OH; thioether N-14), the IC50 was found to be 13.3 nM.

On to `CC(C)C[C@H]1NC(=O)[C@H](CCCN)NC(=O)[C@H](C(C)C)NC(=O)[C@H](Cc2ccc(-c3ccccc3)cc2)NC(=O)[C@H](C(C)C)NC(=O)[C@H](Cc2c[nH]c3ccccc23)NC(=O)[C@H](CC(=O)O)NC(=O)[C@H](Cc2ccc(OCC(=O)O)cc2)NC(=O)[C@H](CN)NC(=O)CSC[C@@H](C(=O)NCCOCCOCC(=O)N[C@H](CN)C(=O)NCCCCCCCCCCC(=O)O)NC(=O)[C@H]([C@@H](C)O)NC(=O)[C@H](C(C)C)NC(=O)[C@H](CC2CCCCC2)NC(=O)[C@H](Cc2cnc[nH]2)NC1=O` [Compound 1128] ({CH2CO}-[Dap]Y(Carboxymethyl)DWV[Bip]V[Orn][dL]H[Cha]VTC[AEEA][dDap][Aun]-OH; thioether N-14), for which the 50% inhibitory concentration (IC50) stood at 28.7 nM.

In the case of `Cc1cccc(C[C@@H]2NC(=O)[C@H](CC(=O)O)NC(=O)[C@H](Cc3ccc(OCC(=O)O)cc3)NC(=O)[C@H](CN)NC(=O)CSC[C@@H](C(=O)N[C@@H](CCN)C(=O)NCCOCCOCC(=O)NCCCCCCCCCCC(=O)O)NC(=O)[C@H](CN)NC(=O)[C@H](C(C)C)NC(=O)[C@H](CC3CCCCC3)NC(=O)[C@H](CCN)NC(=O)[C@@H](CC3CCCCC3)NC(=O)[C@H](CCCN)NC(=O)[C@H](C(C)C)NC(=O)[C@H](Cc3ccc(-c4ccccc4)cc3)NC(=O)[C@H](C(C)C)NC2=O)c1` [Compound 2681] ({CH2CO}-[Dap]Y(Carboxymethyl)D[Phe(3-Me)]V[Bip]V[Orn][dCha][Dab][Cha]V[Dap]C[Dab][AEEA][Aun]-OH; thioether N-14), the IC50 came to 13 nM.

For `Cc1cccc(C[C@@H]2NC(=O)[C@H](CC(=O)O)NC(=O)[C@H](Cc3ccc(OCC(=O)O)cc3)NC(=O)[C@H](CN)NC(=O)CSC[C@@H](C(=O)NCCOCCOCC(=O)N[C@@H](CCN)C(=O)NCCCCCCCCCCC(=O)O)NC(=O)[C@H](C(C)O)NC(=O)[C@H](C(C)C)NC(=O)[C@H](CC3CCCCC3)NC(=O)[C@H](CCN)NC(=O)[C@@H](CC(C)C)NC(=O)[C@H](CCCN)NC(=O)[C@H](Cc3ccc(O)cc3)NC(=O)[C@H](Cc3ccc(-c4ccccc4)cc3)NC(=O)[C@H](C(C)C)NC2=O)c1` (stereo partly drawn) [Compound 2591] ({CH2CO}-[Dap]Y(Carboxymethyl)D[Phe(3-Me)]V[Bip]Y[Orn][dL][Dab][Cha]V[Thr(3ξ)]C[AEEA][Dab][Aun]-OH; thioether N-14), the IC50 stood at 9.5 nM.

As to `Cc1cccc(C[C@@H]2NC(=O)[C@H](CC(=O)O)NC(=O)[C@H](Cc3ccc(OCC(=O)O)cc3)NC(=O)[C@H](CN)NC(=O)CSC[C@@H](C(=O)N[C@@H](C)C(=O)N[C@@H](CC(=O)NCCOCCOCC(=O)N[C@@H](CCC(=O)NCCOCCOCC(=O)NCCCCCCCCCCC(=O)O)C(=O)O)C(=O)O)NC(=O)[C@H]([C@@H](C)O)NC(=O)[C@H](C(C)C)NC(=O)[C@H](CC3CCCCC3)NC(=O)[C@H](CCN)NC(=O)[C@@H](CC(C)C)NC(=O)[C@H](CCCN)NC(=O)[C@H](CCCNC(N)=O)NC(=O)[C@H](Cc3ccc(-c4ccccc4)cc3)NC(=O)[C@H](C(C)C)NC2=O)c1` [Compound 1018] ({CH2CO}-[Dap]Y(Carboxymethyl)D[Phe(3-Me)]V[Bip][Cit][Orn][dL][Dab][Cha]VTCA[βAsp][AEEA][γGlu][AEEA][Aun]-OH; thioether N-14), the IC50 was found to be 8.4 nM.

`Cc1cc(C[C@@H]2NC(=O)[C@H](CC(=O)O)NC(=O)[C@H](Cc3ccc(OCC(=O)O)cc3)NC(=O)[C@H](CCCNC(=N)N)NC(=O)CSC[C@@H](C(=O)N[C@@H](CCN)C(=O)NCCCCCCCCCCC(=O)O)NC(=O)[C@H]([C@@H](C)O)NC(=O)[C@H](C(C)C)NC(=O)[C@H](CC3CCCCC3)NC(=O)[C@H](CCN)NC(=O)[C@@H](CC(C)C)NC(=O)[C@H](CCCN)NC(=O)[C@H](Cc3ccc(O)cc3)NC(=O)[C@H](Cc3ccc(-c4ccccc4)cc3)NC(=O)[C@H](Cc3ccc(O)cc3)NC2=O)ccc1O` [Compound 2104] ({CH2CO}-RY(Carboxymethyl)D[Tyr(3-Me)]Y[Bip]Y[Orn][dL][Dab][Cha]VTC[Dab][Aun]-OH; thioether N-14): the IC50 is 22.3 nM.

Take `Cc1cccc(C[C@@H]2NC(=O)[C@H](CC(=O)O)NC(=O)[C@H](Cc3ccc(OCC(=O)O)cc3)NC(=O)[C@H](CN)NC(=O)CSC[C@@H](C(=O)N[C@@H](CCCCN)C(=O)NCCCCCCCCCCC(=O)O)NC(=O)[C@@H](CO)NC(=O)[C@H](C(C)C)NC(=O)[C@H](CC3CCCCC3)NC(=O)[C@H](CCN)NC(=O)[C@@H](CC(C)C)NC(=O)[C@H](CCCN)NC(=O)[C@H](C(C)C)NC(=O)[C@H](Cc3ccc(-c4ccccc4)cc3)NC(=O)[C@H](C(C)C)NC2=O)c1` [Compound 2001] ({CH2CO}-[Dap]Y(Carboxymethyl)D[Phe(3-Me)]V[Bip]V[Orn][dL][Dab][Cha]V[dS]CK[Aun]-OH; thioether N-14): the IC50 was found to be 32.4 nM.

In the case of `CC(C)C[C@H]1NC(=O)[C@H](CCCN)NC(=O)[C@H](C(C)C)NC(=O)[C@H](Cc2ccc(-c3ccccc3)cc2)NC(=O)[C@H](C(C)C)NC(=O)[C@H](Cc2c[nH]c3ccccc23)NC(=O)[C@H](CC(=O)O)NC(=O)[C@H](Cc2ccc(OCC(=O)O)cc2)NC(=O)[C@H](CN)NC(=O)CSC[C@@H](C(=O)N[C@@H](CCCN)C(=O)NCCCCCCCCCCC(=O)O)NC(=O)[C@H](C(C)O)NC(=O)[C@H](C(C)C)NC(=O)[C@H](CC2CCCCC2)NC(=O)[C@H](CC(N)=O)NC1=O` (stereo partly drawn) [Compound 3149] ({CH2CO}-[Dap]Y(Carboxymethyl)DWV[Bip]V[Orn][dL]N[Cha]V[Thr(3ξ)]C[Orn][Aun]-OH; thioether N-14), the half-maximal inhibitory concentration (IC50) came out at 46.5 nM.

Consider `Cc1cccc(C[C@@H]2NC(=O)[C@H](CC(=O)O)NC(=O)[C@H](Cc3ccc(OCC(=O)O)cc3)NC(=O)[C@H](CN)NC(=O)CSC[C@@H](C(=O)NCCOCCOCC(=O)N[C@@H](CCN)C(=O)NCCCCCCCCCCC(=O)O)NC(=O)[C@H](CN)NC(=O)[C@H](C(C)C)NC(=O)[C@H](CC3CCCCC3)NC(=O)[C@H](CCN)NC(=O)[C@@H](CC3CCCCC3)NC(=O)[C@H](CCCN)NC(=O)[C@H](C(C)C)NC(=O)[C@H](Cc3ccc(-c4ccccc4)cc3)NC(=O)[C@H](C(C)C)NC2=O)c1` [Compound 2675] ({CH2CO}-[Dap]Y(Carboxymethyl)D[Phe(3-Me)]V[Bip]V[Orn][dCha][Dab][Cha]V[Dap]C[AEEA][Dab][Aun]-OH; thioether N-14), for which the half-inhibitory concentration (IC50) was 24.1 nM.

Consider `Cc1cccc(C[C@@H]2NC(=O)[C@H](CC(=O)O)NC(=O)[C@H](Cc3ccc(OCC(=O)O)cc3)NC(=O)[C@H](Cc3ccc(F)cc3)NC(=O)CSC[C@@H](C(=O)N[C@@H](CCN)C(=O)NCCCCCCCCCCC(=O)O)NC(=O)[C@H](Cc3cnc[nH]3)NC(=O)[C@H](C(C)(C)O)NC(=O)[C@H](CC3CCCCC3)NC(=O)[C@H](CCN)NC(=O)[C@@H](CC(C)C)NC(=O)[C@H](CCCN)NC(=O)[C@H](Cc3ccc(OCC(=O)O)cc3)NC(=O)[C@H](Cc3ccc(-c4ccccc4)cc3)NC(=O)[C@H](Cc3ccc(OCC(=O)O)cc3)NC2=O)c1` [Compound 3798] ({CH2CO}-[Phe(4-F)]Y(Carboxymethyl)D[Phe(3-Me)]Y(Carboxymethyl)[Bip]Y(Carboxymethyl)[Orn][dL][Dab][Cha][Val(3-OH)]HC[Dab][Aun]-OH; thioether N-14), for which the concentration for half-maximal inhibition (IC50) came out at 28.4 nM.
